Measurements as given in patent US20230212549A1, “COMPOUNDS COMPRISING A […] LIGAND AND USE THEREOF” (priority 2021, published 2023).
Numbered stars: 1 amine (or outer) side, 2 acyl side, 3 side chain; on linkers, the order of the positions; unused ones are H or OH. Bridge positions count the residues as written; N and C are the ends. Square brackets hold non-standard residues; d marks the D form. Peptide text beside a SMILES is read from it. * marks the point of attachment. ξ: configuration not given here. X1 = NCCNCC(CNCCN)C(=O)N1CCN(CC(=O)NCCCOCCOCCOCCCN*)CC1; Pyridine(3,5-bisCH2) = c1ncc(C[*:2])cc1C[*:1]; mXylylene = c1cc(C[*:1])cc(C[*:2])c1; PEG6 = NCCOCCOCCOCCOCCOCCOCCC(=O)O; Suc = O=C(CCC(=O)[*:2])[*:1]; Nle = CCCC[C@H](N)C(=O)O; X2 = NCCNCC(CNCCN)C(=O)*; ξC = NC(CS)C(=O)O; βAla = NCCC(=O)O

What was measured:
[1] = target: T1, Human recombinant FAP (Homo sapiens, UniProt Q12884); experiment: Surface plasmon resonance (Biacore) assay; type: binding
[2] = Radiochemical purity by HPLC of ^99mTc-labeled compounds; type: physicochemical; details: 99Tc-labeled compounds
Procedure: 100-500 MBq of ^99mTcO4 (in saline) were mixed with 11 μl of 0.5 M phosphate buffer pH 11.5-12.0 and 1.1 μl of 0.1 M trisodium citrate per 100 μl radionuclide solution. […] The mixture was incubated for 30 min at 25-50′° C. At the end of the incubation time, the mixture was neutralized with 3.0 μl 1 M HCl per 10 μl phosphate buffer and TWEEN-20 was added at a final concentration of 0.100.

[3] = target: T1, Human recombinant FAP; experiment: FRET-based FAP protease activity assay; type: biochemical; design: purchased R&D systems 3715-SE; details: pIC50 Category (activity), Recombinant human FAP
[4] = in vivo; details: swiss nude, mouse, iv
[5] = target: T2, FAP-expressing human WI-38 fibroblasts (Homo sapiens, UniProt Q12884); experiment: Competitive FACS binding assay
T2 construct: FAP-expressing human WI-38 fibroblasts (ECACC) were cultured in EMEM; host or cells: WI-38 human fibroblasts
Procedure: Cells were analyzed in an Attune NxT flow cytometer. […] […].
Cells were analyzed in an Attune NxT flow cytometer. […]

T1 sequence (Q12884 whole entry): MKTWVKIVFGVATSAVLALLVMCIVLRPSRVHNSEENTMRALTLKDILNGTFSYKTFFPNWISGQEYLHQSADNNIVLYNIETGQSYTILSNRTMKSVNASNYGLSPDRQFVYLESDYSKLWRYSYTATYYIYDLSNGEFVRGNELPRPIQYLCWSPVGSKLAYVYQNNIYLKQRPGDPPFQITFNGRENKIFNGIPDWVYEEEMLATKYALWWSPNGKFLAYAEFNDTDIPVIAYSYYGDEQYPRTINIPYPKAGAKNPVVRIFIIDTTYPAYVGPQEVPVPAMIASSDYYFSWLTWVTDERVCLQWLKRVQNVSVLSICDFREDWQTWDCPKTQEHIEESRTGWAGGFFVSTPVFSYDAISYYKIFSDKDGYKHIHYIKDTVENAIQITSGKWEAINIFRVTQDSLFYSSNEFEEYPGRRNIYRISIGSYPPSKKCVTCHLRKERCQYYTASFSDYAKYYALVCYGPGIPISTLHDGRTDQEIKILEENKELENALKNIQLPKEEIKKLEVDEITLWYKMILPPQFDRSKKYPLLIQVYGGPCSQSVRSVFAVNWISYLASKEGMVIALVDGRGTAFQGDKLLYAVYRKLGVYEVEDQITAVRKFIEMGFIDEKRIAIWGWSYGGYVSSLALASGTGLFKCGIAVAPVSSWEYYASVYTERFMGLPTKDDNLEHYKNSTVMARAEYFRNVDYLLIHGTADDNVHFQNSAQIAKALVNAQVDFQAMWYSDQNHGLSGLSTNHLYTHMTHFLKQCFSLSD
T2 sequence (Q12884 whole entry): as above

Compound | Kd [1] [µM] | HPLC Area % at end of synthesis [2] [%] | HPLC Area % appr. 4 h post end of synthesis ([2]; (3 h)) [%] | IC50 [3] [µM] | tissue uptake at 1 h ([4]; blood pool surrogate (BPS)) [%ID/g] | tissue uptake at 3 h ([4]; blood pool surrogate (BPS)) [%ID/g] | tissue uptake at 6 h ([4]; blood pool surrogate (BPS)) [%ID/g] | tissue uptake at 1 h ([4]; kidneys) [%ID/g] | tissue uptake at 3 h ([4]; kidneys) [%ID/g] | tissue uptake at 6 h ([4]; kidneys) [%ID/g] | tissue uptake at 1 h ([4]; tumor) [%ID/g] | tissue uptake at 3 h ([4]; tumor) [%ID/g] | tissue uptake at 6 h ([4]; tumor) [%ID/g] | IC50 [5] [µM] | HPLC Area % appr. 4 h post end of synthesis [2] [%]
CCCC[C@H](NC(=O)CCC(=O)NCCCOCCOCCOCCCNC(=O)C(CNCCN)CNCCN)C(=O)N[C@H]1CSCc2cncc(c2)CSCC(C(=O)O)NC(=O)[C@H](Cc2ccccc2)NC(=O)[C@H](CCC(N)=O)NC(=O)[C@H]([C@@H](C)O)NC(=O)[C@@H]2CCCN2C(=O)[C@@H]2CCCN2C1=O (stereo partly drawn) [3BP-4549, N4Ac-Ttds-Nle-[Cys(3Lut)-Pro-Pro-Thr-Gln-Phe-Cys]-OH] | 0.01 to 0.0794 | 99.3 | 97.6 | < 0.01 | 0.18 | 0.03 | 0.01 | 4.22 | 1.82 | 0.58 | 6.04 | 4.25 | 1.68 | 0.01 to 0.0794 | 
CCCC[C@H](NC(=O)CCOCCOCCOCCOCCOCCOCCNC(=O)C(CNCCN)CNCCN)C(=O)N[C@H]1CSCc2cncc(c2)CSCC(C(=O)O)NC(=O)[C@H](Cc2ccccc2)NC(=O)[C@H](CCC(N)=O)NC(=O)[C@H]([C@@H](C)O)NC(=O)[C@@H]2CCCN2C(=O)[C@@H]2CCCN2C1=O (stereo partly drawn) [3BP-4550, N4Ac-PEG6-Nle-[Cys(3Lut)-Pro-Pro-Thr-Gln-Phe-Cys]-OH] | 0.01 to 0.0794 | 100 | 98.0 | 0.01 to 0.0794 | 0.06 | 0.03 | 0.04 | 0.92 | 0.62 | 0.38 | 6.14 | 4.91 | 2.91 | 0.1 to 0.794 | 
CCCC[C@H](NC(=O)CCOCCOCCOCCOCCOCCOCCNC(=O)C(CNCCN)CNCCN)C(=O)N[C@H]1CSCc2cccc(c2)CSCC(C(=O)O)NC(=O)[C@H](Cc2ccccc2)NC(=O)[C@H](CCC(N)=O)NC(=O)[C@H]([C@@H](C)O)NC(=O)[C@@H]2CCCN2C(=O)[C@@H]2CCCN2C1=O (stereo partly drawn) [3BP-4551, N4Ac-PEG6-Nle-[Cys(3MeBn)-Pro-Pro-Thr-Gln-Phe-Cys]-OH] | 0.01 to 0.0794 | 94.1 |  | 0.01 to 0.0794 | 0.18 | 0.07 | 0.04 | 4.34 | 1.18 | 0.5 | 10.6 | 7.31 | 4.59 | 0.01 to 0.0794 | 90.8
CCCC[C@H](NC(=O)CCOCCOCCOCCOCCOCCOCCNC(=O)C(CNCCN)CNCCN)C(=O)N[C@H]1CSCc2cncc(c2)CSCC(C(=O)O)NC(=O)[C@H](Cc2ccccc2)NC(=O)[C@H](CCC(=O)O)NC(=O)[C@H]([C@@H](C)O)NC(=O)[C@@H]2CCCN2C(=O)[C@@H]2CCCN2C1=O (stereo partly drawn) [3BP-4773, N4Ac-PEG6-Nle-[Cys(3Lut)-Pro-Pro-Thr-Glu-Phe-Cys]-OH] ({X2-PEG6}-[Nle]CPPTEF[ξC]-OH; linker 2-8 via Pyridine(3,5-bisCH2)) | 0.01 to 0.0794 | 95.8 |  | 0.01 to 0.0794 | 0.25 | 0.09 | 0.06 | 6.64 | 4.71 | 3.12 | 6.19 | 6.19 | 5.42 | 0.01 to 0.0794 | 
CCCC[C@H](NC(=O)CCC(=O)NCCCOCCOCCOCCCNC(=O)CN1CCN(C(=O)C(CNCCN)CNCCN)CC1)C(=O)N[C@H]1CSCc2cncc(c2)CSCC(C(=O)O)NC(=O)[C@H](Cc2ccccc2)NC(=O)[C@H](CCC(=O)O)NC(=O)[C@H]([C@@H](C)O)NC(=O)[C@@H]2CCCN2C(=O)[C@@H]2CCCN2C1=O (stereo partly drawn) [3BP-4775, N4Ac-PPAc-Ttds-Nle-[Cys(3Lut)-Pro-Pro-Thr-Glu-Phe-Cys]-OH] ({X1-Suc}-[Nle]CPPTEF[ξC]-OH; linker 2-8 via Pyridine(3,5-bisCH2)) | 0.01 to 0.0794 | 86.4 |  | 0.01 to 0.0794 | 0.21 | 0.18 | 0.04 | 8.98 | 6.31 | 4.28 | 7.88 | 6.28 | 4.55 | 0.01 to 0.0794 | 88.1
CCCC[C@H](NC(=O)CCC(=O)NCCCOCCOCCOCCCNC(=O)CN1CCN(C(=O)C(CNCCN)CNCCN)CC1)C(=O)N[C@H]1CSCc2cccc(c2)CSC[C@@H](C(=O)O)NC(=O)[C@H](Cc2ccccc2)NC(=O)[C@H](CCC(=O)O)NC(=O)[C@H]([C@@H](C)O)NC(=O)[C@@H]2CCCN2C(=O)[C@@H]2CCCN2C1=O [3BP-4782, N4Ac-PPAc-Ttds-Nle-[Cys(3MeBn)-Pro-Pro-Thr-Glu-Phe-Cys]-OH] ({X1-Suc}-[Nle]CPPTEFC-OH; linker 2-8 via mXylylene) |  | 97.1 |  | 0.01 to 0.0794 | 0.69 | 0.47 | 0.36 | 7.28 | 5.78 | 4.24 | 6.2 | 6.77 | 7.17 | 0.01 to 0.0794 | 95.8
CCCC[C@H](NC(=O)CCC(=O)NCCCOCCOCCOCCCNC(=O)CN1CCN(C(=O)C(CNCCN)CNCCN)CC1)C(=O)N[C@H]1CSCc2cccc(c2)CSC[C@@H](C(=O)NCCC(=O)O)NC(=O)[C@H](Cc2ccccc2)NC(=O)[C@H](CCC(=O)O)NC(=O)[C@H]([C@@H](C)O)NC(=O)[C@@H]2CCCN2C(=O)[C@@H]2CCCN2C1=O [3BP-4784, N4Ac-PPAc-Ttds-Nle-[Cys(3MeBn)-Pro-Pro-Thr-Glu-Phe-Cys]-Bal-OH] ({X1-Suc}-[Nle]CPPTEFC[βAla]-OH; linker 2-8 via mXylylene) | < 0.01 | 96.6 |  | < 0.01 | 0.9 | 0.63 | 0.38 | 1.61 | 1.23 | 1.01 | 7.65 | 7.43 | 7.44 | < 0.01 | 94.9
CCCC[C@H](NC(=O)CCC(=O)NCCCOCCOCCOCCCNC(=O)CN1CCN(C(=O)C(CNCCN)CNCCN)CC1)C(=O)N[C@H]1CSCc2cccc(c2)CSC[C@@H](C(=O)N[C@@H](CC(=O)O)C(=O)O)NC(=O)[C@H](Cc2ccccc2)NC(=O)[C@H](CCC(=O)O)NC(=O)[C@H]([C@@H](C)O)NC(=O)[C@@H]2CCCN2C(=O)[C@@H]2CCCN2C1=O [3BP-4785, N4Ac-PPAc-Ttds-Nle-[Cys(3MeBn)-Pro-Pro-Thr-Glu-Phe-Cys]-Asp-OH] ({X1-Suc}-[Nle]CPPTEFCD-OH; linker 2-8 via mXylylene) |  | 95.3 |  | < 0.01 | 0.92 | 0.64 | 0.48 | 3.47 | 2.14 | 1.63 | 4.2 | 4.14 | 4.32 | < 0.01 | 93.8
CCCC[C@H](NC(=O)CCC(=O)NCCCOCCOCCOCCCNC(=O)CN1CCN(C(=O)C(CNCCN)CNCCN)CC1)C(=O)N[C@H]1CSCc2cccc(c2)CSC[C@@H](C(=O)NCCC(=O)O)NC(=O)[C@H](Cc2ccccc2)NC(=O)[C@H](CCC(N)=O)NC(=O)[C@H]([C@@H](C)O)NC(=O)[C@@H]2CCCN2C(=O)[C@@H]2CCCN2C1=O [3BP-4960, N4Ac-PPAc-Ttds-Nle-[Cys(3MeBn)-Pro-Pro-Thr-Gln-Phe-Cys]-Bal-OH] | < 0.01 | 95.2 |  | < 0.01 | 0.74 | 0.47 | 0.17 | 1.96 | 1.21 | 1.21 | 10.5 | 12.8 | 12.1 | < 0.01 | 92.3
